For nine compounds, T/C results are on record in PubChem BioAssay AID270 (DTP/NCI, 2004).

The assay relates to BDF1 mice, s.c. Lewis lung carcinoma, T/C %. In words: NCI In Vivo Anticancer Drug Screen. Data for tumor model Lewis Lung Carcinoma (subcutaneous) in B6D2F1 (BDF1) mice. In outline:
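Tumor-bearing mice were treated with test compound, and either survival or tumor size was recorded. Values are the treated-group measurement divided by that of the vehicle-treated control group.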

Where “and” joins values, the source holds several entries; their conditions need not be identical. Equal values may be shown once. Inconclusive results are not listed.

With `CCOP(=O)(CC(=O)NC(CC(=O)OC)C(=O)OC)OCC` (centres undefined), the T/C is, setting by setting: (endpoint: median survival time, dose: 50.0 mg/kg/injection, schedule: Q01DX004 (ip), vehicle: saline, higher = longer survival) 110 % of control; (endpoint: median survival time, dose: 100.0 mg/kg/injection, schedule: Q01DX004 (ip), vehicle: saline, higher = longer survival) 120 % of control; (endpoint: median survival time, dose: 200.0 mg/kg/injection, schedule: Q01DX004 (ip), vehicle: saline, higher = longer survival) 116 % of control; (endpoint: median survival time, dose: 800.0 mg/kg/injection, schedule: Q01DX004 (ip), vehicle: saline, higher = longer survival) 124 % of control; (endpoint: median survival time, dose: 1600.0 mg/kg/injection, schedule: Q01DX004 (ip), vehicle: saline, higher = longer survival) 124 % of control.
For the compound `CCCCC(=O)OCC(=O)[C@]1(O)Cc2c(O)c3c(c(O)c2[C@@H](OC2CC(NC(=O)C(F)(F)F)C(O)C(C)O2)C1)C(=O)c1c(OC)cccc1C3=O` (some centres undefined), the T/C runs as follows: (endpoint: median survival time, dose: 14.0 mg/kg/injection, schedule: Q01DX009 (ip), vehicle: distilled water + Tween-80, higher = longer survival) 114 % of control; (endpoint: median survival time, dose: 20.0 mg/kg/injection, schedule: Q01DX009 (ip), vehicle: distilled water + Tween-80, higher = longer survival) 123 % of control; (endpoint: median survival time, dose: 54.0 mg/kg/injection, schedule: Q01DX001 (ip), vehicle: distilled water + Tween-80, higher = longer survival) 113 % of control; (endpoint: median survival time, dose: 80.0 mg/kg/injection, schedule: Q01DX001 (ip), vehicle: distilled water + Tween-80, higher = longer survival) 155 % of control; (endpoint: median survival time, dose: 120.0 mg/kg/injection, schedule: Q01DX001 (ip), vehicle: distilled water + Tween-80, higher = longer survival) 158 % of control.
Regarding `COc1ccc(-c2cc(=O)c3ccccc3o2)c(OC)c1OC`, the T/C is 95 % of control (endpoint: mean tumor weight, dose: 50.0 mg/kg/injection, schedule: Q01DX010 (ip), vehicle: saline, higher = larger tumour); 101 % of control (endpoint: mean tumor weight, dose: 100.0 mg/kg/injection, schedule: Q01DX010 (ip), vehicle: saline, higher = larger tumour); 83 % of control (endpoint: mean tumor weight, dose: 200.0 mg/kg/injection, schedule: Q01DX010 (ip), vehicle: saline, higher = larger tumour); 99 % of control (endpoint: mean tumor weight, dose: 400.0 mg/kg/injection, schedule: Q01DX010 (ip), vehicle: saline, higher = larger tumour).
`CN(C)c1nc(N(C)C)nc(N(C)C)n1`: the T/C (endpoint: median survival time, dose: 6.25 mg/kg/injection, schedule: Q08HX024 (ip), vehicle: Klucel (hydroxypropylcellulose) (HPC), higher = longer survival) is 106 % of control; the T/C (endpoint: median survival time, dose: 12.5 mg/kg/injection, schedule: Q01DX009 (ip), vehicle: saline with Tween-80, higher = longer survival) was 93 % of control and 102 % of control; the T/C (endpoint: median survival time, dose: 25.0 mg/kg/injection, schedule: Q01DX009 (ip), vehicle: saline with Tween-80, higher = longer survival) was 97 % of control and 102 % of control; the T/C (endpoint: median survival time, dose: 25.0 mg/kg/injection, schedule: Q08HX024 (ip), vehicle: Klucel (hydroxypropylcellulose) (HPC), higher = longer survival) was 112 % of control; the T/C (endpoint: median survival time, dose: 50.0 mg/kg/injection, schedule: Q01DX009 (ip), vehicle: saline with Tween-80, higher = longer survival) was 103 % of control and 110 % of control; the T/C (endpoint: median survival time, dose: 100.0 mg/kg/injection, schedule: Q01DX009 (ip), vehicle: saline with Tween-80, higher = longer survival) was 102 % of control.
For `N[C@@H](Cc1ccc(N(CCCl)CCCl)cc1)C(=O)O`, the T/C (endpoint: mean tumor weight, dose: 0.5 mg/kg/injection, schedule: Q01DX011 (ip), vehicle: saline, higher = larger tumour) was 76 % of control; the T/C (endpoint: mean tumor weight, dose: 0.8 mg/kg/injection, schedule: Q01DX011 (ip), vehicle: carboxymethylcellulose (CMC), higher = larger tumour) is 71 % of control; the T/C (endpoint: mean tumor weight, dose: 1.0 mg/kg/injection, schedule: Q01DX011 (ip), vehicle: saline, higher = larger tumour) is 46 % of control; the T/C (endpoint: mean tumor weight, dose: 1.6 mg/kg/injection, schedule: Q01DX011 (ip), vehicle: carboxymethylcellulose (CMC), higher = larger tumour) is 70 % of control; the T/C (endpoint: mean tumor weight, dose: 2.0 mg/kg/injection, schedule: Q01DX011 (ip), vehicle: saline, higher = larger tumour) was 46 % of control; the T/C (endpoint: mean tumor weight, dose: 2.4 mg/kg/injection, schedule: Q01DX011 (ip), vehicle: carboxymethylcellulose (CMC), higher = larger tumour) is 68 % of control and 69 % of control. In addition, the T/C by setting is: (endpoint: mean tumor weight, dose: 3.6 mg/kg/injection, schedule: Q01DX011 (ip), vehicle: carboxymethylcellulose (CMC), higher = larger tumour) 45 % of control; (endpoint: mean tumor weight, dose: 4.0 mg/kg/injection, schedule: Q01DX011 (ip), vehicle: saline, higher = larger tumour) 21 % of control; (endpoint: mean tumor weight, dose: 5.4 mg/kg/injection, schedule: Q01DX011 (ip), vehicle: carboxymethylcellulose (CMC), higher = larger tumour) 20 % of control; (endpoint: median survival time, dose: 0.04 mg/kg/injection, schedule: Q01DX009 (ip), vehicle: saline, higher = longer survival) 115 % of control; (endpoint: median survival time, dose: 0.08 mg/kg/injection, schedule: Q01DX009 (ip), vehicle: saline, higher = longer survival) 103 % of control; (endpoint: median survival time, dose: 0.31 mg/kg/injection, schedule: Q01DX009 (ip), vehicle: saline, higher = longer survival) 107 % of control. For the same compound, the T/C was 101 % of control (endpoint: median survival time, dose: 0.5 mg/kg/injection, schedule: Q01DX009 (ip), vehicle: saline with Tween-80, higher = longer survival); 104 % of control and 122 % of control (endpoint: median survival time, dose: 0.5 mg/kg/injection, schedule: Q01DX009 (ip), vehicle: saline, higher = longer survival); 102 % of control (endpoint: median survival time, dose: 0.75 mg/kg/injection, schedule: Q01DX009 (ip), vehicle: saline, higher = longer survival); 107 % of control (endpoint: median survival time, dose: 1.0 mg/kg/injection, schedule: Q01DX009 (ip), vehicle: Klucel (hydroxypropylcellulose) (HPC), higher = longer survival); 108 % of control (endpoint: median survival time, dose: 1.0 mg/kg/injection, schedule: Q01DX009 (ip), vehicle: saline with Tween-80, higher = longer survival); 107 % of control (endpoint: median survival time, dose: 1.0 mg/kg/injection, schedule: Q01DX009 (ip), vehicle: saline, higher = longer survival). Further, the T/C is, setting by setting: (endpoint: median survival time, dose: 1.5 mg/kg/injection, schedule: Q01DX009 (ip), vehicle: saline, higher = longer survival) 93 % of control; (endpoint: median survival time, dose: 2.0 mg/kg/injection, schedule: Q01DX001 (ip), vehicle: saline, higher = longer survival) 106 % of control; (endpoint: median survival time, dose: 2.0 mg/kg/injection, schedule: Q01DX009 (ip), vehicle: Klucel (hydroxypropylcellulose) (HPC), higher = longer survival) 89 % of control; (endpoint: median survival time, dose: 2.0 mg/kg/injection, schedule: Q01DX009 (ip), vehicle: saline with Tween-80, higher = longer survival) 97 % of control; (endpoint: median survival time, dose: 2.5 mg/kg/injection, schedule: Q01DX001 (ip), vehicle: saline, higher = longer survival) 100 % of control; (endpoint: median survival time, dose: 2.5 mg/kg/injection, schedule: Q01DX001 (ip), vehicle: water, higher = longer survival) 90 % of control. For the same compound, the T/C (endpoint: median survival time, dose: 3.0 mg/kg/injection, schedule: Q01DX009 (ip), vehicle: saline, higher = longer survival) is 116 % of control; the T/C (endpoint: median survival time, dose: 4.0 mg/kg/injection, schedule: Q01DX001 (ip), vehicle: saline, higher = longer survival) was 100 % of control; the T/C (endpoint: median survival time, dose: 4.0 mg/kg/injection, schedule: Q01DX009 (ip), vehicle: Klucel (hydroxypropylcellulose) (HPC), higher = longer survival) was 104 % of control; the T/C (endpoint: median survival time, dose: 4.0 mg/kg/injection, schedule: Q01DX009 (ip), vehicle: saline, higher = longer survival) was 100 % of control and 123 % of control; the T/C (endpoint: median survival time, dose: 4.0 mg/kg/injection, schedule: Q04DX003 (ip), vehicle: saline, higher = longer survival) was 119 % of control; the T/C (endpoint: median survival time, dose: 5.0 mg/kg/injection, schedule: Q01DX001 (ip), vehicle: water, higher = longer survival) is 109 % of control. Also, the T/C (endpoint: median survival time, dose: 8.0 mg/kg/injection, schedule: Q01DX001 (ip), vehicle: saline, higher = longer survival) was 112 % of control; the T/C (endpoint: median survival time, dose: 8.0 mg/kg/injection, schedule: Q01DX009 (ip), vehicle: saline, higher = longer survival) was 86 % of control; the T/C (endpoint: median survival time, dose: 8.0 mg/kg/injection, schedule: Q04DX003 (ip), vehicle: saline, higher = longer survival) was 107 % of control; the T/C (endpoint: median survival time, dose: 10.0 mg/kg/injection, schedule: Q01DX001 (ip), vehicle: saline, higher = longer survival) is 100 % of control; the T/C (endpoint: median survival time, dose: 10.0 mg/kg/injection, schedule: Q01DX001 (ip), vehicle: water, higher = longer survival) is 104 % of control; the T/C (endpoint: median tumor weight (est.), dose: 6.3 mg/kg/injection, schedule: Q01DX001 (ip), vehicle: carboxymethylcellulose (CMC), higher = larger tumour) is 41 % of control. Further, the T/C (endpoint: median tumor weight (est.), dose: 13.0 mg/kg/injection, schedule: Q01DX001 (ip), vehicle: carboxymethylcellulose (CMC), higher = larger tumour) is 39 % of control.
Consider `Cc1ccccc1Cc1ccccc1`, for which the T/C runs as follows: (endpoint: mean tumor weight, dose: 78.0 mg/kg/injection, schedule: Q01DX011 (ip), vehicle: saline, higher = larger tumour) 121 % of control; (endpoint: mean tumor weight, dose: 117.0 mg/kg/injection, schedule: Q01DX011 (ip), vehicle: saline, higher = larger tumour) 111 % of control; (endpoint: mean tumor weight, dose: 175.0 mg/kg/injection, schedule: Q01DX011 (ip), vehicle: saline, higher = larger tumour) 85 % of control; (endpoint: mean tumor weight, dose: 263.0 mg/kg/injection, schedule: Q01DX011 (ip), vehicle: saline, higher = larger tumour) 103 % of control.
Take `COC(=O)[C@@H]1[C@@H](O)[C@H](OC(=O)c2cc(OC)c(OC)c(OC)c2)C[C@@H]2CN3CCc4c([nH]c5ccccc45)[C@H]3C[C@@H]21`: the T/C (endpoint: median survival time, dose: 1.25 mg/kg/injection, schedule: Q01DX009 (ip), vehicle: Klucel (hydroxypropylcellulose) (HPC), higher = longer survival) is 108 % of control; the T/C (endpoint: median survival time, dose: 2.5 mg/kg/injection, schedule: Q01DX009 (ip), vehicle: Klucel (hydroxypropylcellulose) (HPC), higher = longer survival) is 122 % of control; the T/C (endpoint: median survival time, dose: 5.0 mg/kg/injection, schedule: Q01DX009 (ip), vehicle: Klucel (hydroxypropylcellulose) (HPC), higher = longer survival) was 88 % of control.
On to `COc1cc(-c2ccc(Nc3ccccc3C(=O)O)c(OC)c2)ccc1N`, for which the T/C was 86 % of control (endpoint: mean tumor weight, dose: 10.0 mg/kg/injection, schedule: Q01DX011 (ip), vehicle: carboxymethylcellulose (CMC), higher = larger tumour); 72 % of control (endpoint: mean tumor weight, dose: 20.0 mg/kg/injection, schedule: Q01DX011 (ip), vehicle: carboxymethylcellulose (CMC), higher = larger tumour); 37 % of control (endpoint: mean tumor weight, dose: 40.0 mg/kg/injection, schedule: Q01DX011 (ip), vehicle: carboxymethylcellulose (CMC), higher = larger tumour).
For `NS(=O)(=O)c1ncnc2nc[nH]c12`, the T/C is 88 % of control (endpoint: mean tumor weight, dose: 5.0 mg/kg/injection, schedule: Q01DX011 (ip), vehicle: methylcellulose (MC), higher = larger tumour) and 87 % of control (endpoint: mean tumor weight, dose: 25.0 mg/kg/injection, schedule: Q01DX011 (ip), vehicle: methylcellulose (MC), higher = larger tumour).
